# Assay results from ChEMBL document CHEMBL1135288, “Anthranilate sulfonamide hydroxamate TACE inhibitors. Part 1: Structure-based design of novel acetylenic P1' groups” (Bioorg Med Chem Lett, 2002).
# Key:
# [1] = target: T1, Interstitial collagenase (Homo sapiens) (UniProt P03956); assay: Inhibition of Matrix metalloprotease-1 at 10 uM
# T1 sequence (whole entry): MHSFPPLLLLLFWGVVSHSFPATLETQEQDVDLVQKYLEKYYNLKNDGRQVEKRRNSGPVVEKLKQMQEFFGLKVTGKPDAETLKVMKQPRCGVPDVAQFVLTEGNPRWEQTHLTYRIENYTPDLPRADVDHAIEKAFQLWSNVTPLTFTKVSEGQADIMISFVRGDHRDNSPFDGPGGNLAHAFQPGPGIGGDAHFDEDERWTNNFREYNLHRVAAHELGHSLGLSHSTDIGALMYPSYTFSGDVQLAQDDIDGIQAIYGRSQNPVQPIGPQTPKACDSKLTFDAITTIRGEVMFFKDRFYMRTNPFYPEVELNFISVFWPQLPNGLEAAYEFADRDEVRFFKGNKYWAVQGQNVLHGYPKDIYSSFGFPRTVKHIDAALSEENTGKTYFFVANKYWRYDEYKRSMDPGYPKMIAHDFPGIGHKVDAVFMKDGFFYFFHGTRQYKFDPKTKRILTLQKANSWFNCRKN
# [2] = target: Disintegrin and metalloproteinase domain-containing protein 17 (Sus scrofa, UniProt O77636); assay: Inhibition of porcine Tumor necrosis factor alpha converting enzyme
# Disintegrin and metalloproteinase domain-containing protein 17, sequence (O77636 whole entry, the tested form may be a part): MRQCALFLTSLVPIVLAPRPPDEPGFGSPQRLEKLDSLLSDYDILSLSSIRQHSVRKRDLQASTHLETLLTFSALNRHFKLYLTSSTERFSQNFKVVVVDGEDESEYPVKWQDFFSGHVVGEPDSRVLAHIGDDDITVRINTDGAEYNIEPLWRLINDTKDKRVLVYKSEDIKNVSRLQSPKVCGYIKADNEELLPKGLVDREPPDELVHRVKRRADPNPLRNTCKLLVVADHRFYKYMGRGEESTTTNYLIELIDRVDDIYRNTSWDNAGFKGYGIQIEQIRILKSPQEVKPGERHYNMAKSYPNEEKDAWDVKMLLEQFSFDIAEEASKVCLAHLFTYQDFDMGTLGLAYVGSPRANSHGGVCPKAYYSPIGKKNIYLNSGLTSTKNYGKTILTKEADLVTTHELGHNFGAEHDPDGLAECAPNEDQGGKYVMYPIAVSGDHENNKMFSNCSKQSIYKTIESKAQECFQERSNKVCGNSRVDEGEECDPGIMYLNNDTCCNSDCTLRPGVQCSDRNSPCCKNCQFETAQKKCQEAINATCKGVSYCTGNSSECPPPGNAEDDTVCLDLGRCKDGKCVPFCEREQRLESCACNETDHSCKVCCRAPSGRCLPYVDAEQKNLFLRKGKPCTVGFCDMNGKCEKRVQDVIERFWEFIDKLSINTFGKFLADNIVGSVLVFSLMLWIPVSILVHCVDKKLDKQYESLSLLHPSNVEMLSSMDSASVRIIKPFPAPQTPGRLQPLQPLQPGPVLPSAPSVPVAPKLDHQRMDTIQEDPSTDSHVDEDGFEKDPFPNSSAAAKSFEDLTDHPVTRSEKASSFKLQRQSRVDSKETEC
# [3] = target: Collagenase 3 (Homo sapiens, UniProt P45452); assay: Inhibition of Matrix metalloprotease-13
# [4] = target: Matrix metalloproteinase-9 (Homo sapiens, UniProt P14780); assay: Inhibition of Matrix metalloprotease-9
# Matrix metalloproteinase-9, sequence (P14780 whole entry): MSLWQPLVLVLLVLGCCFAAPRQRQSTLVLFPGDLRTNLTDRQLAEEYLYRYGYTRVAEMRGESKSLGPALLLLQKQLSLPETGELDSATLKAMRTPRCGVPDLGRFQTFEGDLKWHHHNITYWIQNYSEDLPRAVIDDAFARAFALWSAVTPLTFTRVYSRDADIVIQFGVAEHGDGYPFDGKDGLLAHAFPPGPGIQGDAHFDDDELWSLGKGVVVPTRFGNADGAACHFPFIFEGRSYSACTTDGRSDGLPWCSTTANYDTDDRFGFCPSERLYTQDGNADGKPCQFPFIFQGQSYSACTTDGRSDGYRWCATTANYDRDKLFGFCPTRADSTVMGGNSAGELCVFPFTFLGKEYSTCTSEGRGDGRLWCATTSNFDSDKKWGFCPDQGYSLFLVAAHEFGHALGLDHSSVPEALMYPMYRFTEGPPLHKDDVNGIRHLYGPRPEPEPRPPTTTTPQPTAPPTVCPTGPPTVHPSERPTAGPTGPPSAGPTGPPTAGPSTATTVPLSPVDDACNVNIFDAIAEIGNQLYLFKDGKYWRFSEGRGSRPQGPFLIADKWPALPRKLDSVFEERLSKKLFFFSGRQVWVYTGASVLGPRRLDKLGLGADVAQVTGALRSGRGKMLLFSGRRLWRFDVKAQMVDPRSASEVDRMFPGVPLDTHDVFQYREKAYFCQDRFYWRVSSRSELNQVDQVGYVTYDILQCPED
# [5] = target: T2, Interstitial collagenase (Homo sapiens, UniProt P03956); assay: Inhibition of Matrix metalloprotease-1
# T2 sequence (P03956 whole entry): T1 sequence (whole entry)
Compound,inhibition [1],IC50 [2],IC50 [3],IC50 [4],IC50 [5]
CCCCC#CCOc1ccc(S(=O)(=O)N(C)c2c(C)cc(Br)cc2C(=O)NO)cc1,53%,–,–,–,–
C#CCOc1ccc(S(=O)(=O)N(C)c2c(C)cc(Br)cc2C(=O)NO)cc1,–,11 nM,–,–,–
CCCCOc1ccc(S(=O)(=O)N(C)c2c(C)cc(Br)cc2C(=O)NO)cc1,–,67 nM,68 nM,21 nM,2490 nM
